According to patent US20230404893A1, “Oral Care Compositions Comprising Ascorbic Acid Derivatives” (Colgate-Palmolive Company, priority 2020, published 2023):

Key:
[1] = Standard brushing study, Toothpaste F samples (starting L 57.3-66.3, twelve teeth per cell); design: species or system bovine; settings: ΔW data of Table 14, Toothpaste F
Description: Bovine enamel teeth mounted individually in resin blocks are purchased and brushed with an abrasive paste until initial “L” values were 56-68. Trays are prepared for the brushing machine and each tray consists of six teeth mounted using 3D printed trays. Baseline optical measurements of the bovine teeth are taken using a spectrophotometer and the trays are loaded onto the brushing machine.
Toothbrushes are placed on the brushing machine by removing the head of a manual toothbrush from its handle. Slurry composed of 1:1 ratio by weight of test toothpaste to artificial saliva is prepared and added to each tray. The teeth are brushed for two minutes with 250 grams of pressure at 120 strokes per minute. After brushing is stopped, the slurry is removed and residual toothpaste is rinsed away with deionized water. The brushing treatment is repeated a total of 14 times and measurements are taken every 2 cycles. The teeth are then gently blotted with a paper towel to remove excess liquid and measurements are taken with the spectrophotometer. […] The “L”, “a”, and “b” values are determined and are used to calculate the change in whiteness “ΔW” for each tooth after the treatment. […]

[2] = Color of toothpaste samples measured with a spectrophotometer (L*, a*, b*); type: physicochemical; settings: basic toothpaste formulas with sodium ascorbyl phosphate, with/without sodium stearate
Description: To overcome this color issue, surfactants are added to the basic toothpaste formulas in combination with sodium ascorbyl phosphate. Table 15 describes one basic toothpaste formula, to which sodium ascorbyl phosphate and surfactants are added. Three surfactants, sodium stearate, sodium cocoyl glutamate and sodium lauryl isoethionate, are screened, alone and in different combinations with/without sodium ascorbyl phosphate.
Samples of basic toothpaste G with different amounts and combinations of surfactants with/without sodium ascorbyl phosphate are prepared and evaluated for color, as shown in Table 16. A high “b*” value indicates a more yellow color while a lower value indicates a more blue color. A high “L*” value indicates a whiter sample compared to a low “L*” value which indicates a darker sample. As can be observed in Table 16 samples without sodium stearate that incorporate sodium ascorbyl phosphate tends to increase the “b*” value, indicating a more yellow color. Samples that incorporate sodium stearate with sodium ascorbyl phosphate tend to have a relative reduction in “b*” value, indicating less yellow color.

O=C1O[C@H]([C@@H](O)CO)C([O-])=C1OP(=O)([O-])[O-].[Na+].[Na+].[Na+] [sodium ascorbyl phosphate]
whitening efficacy (in words) [1]: significant effect on whitening efficacy | color of the toothpaste (in words) [2]: observable yellow color
